Measurements as given in patent publication US20110009474A1, “SIRTUIN BASED METHODS AND COMPOSITIONS FOR TREATING BETA-CATENIN-RELATED CONDITIONS” (President and Fellows of Harvard College, priority 2007, published 2011).

Test system: β-catenin transcriptional activity (pTOPFLASH reporter) in 293T cells
Experiment: TOPFLASH β-catenin luciferase reporter assay in transfected 293T cells
Type: cell-based, human
Settings: NAM added eight hours after transfection, harvested 24 h post-transfection, normalized to Renilla luciferase, FIG. 4F

With NC(=O)c1cccnc1 [nicotinamide] the “luciferase reporter activity (pTOPFLASH β-catenin reporter)” value was “increased luciferase reporter activity”.
